How the values were obtained:
IAV HA and NP protein = assay: Western blot of IAV HA and NP protein levels; details: for stability of virus surface protein HA: IAV, after exposure
[1] = tested on: SARS-CoV-2 S and N protein; assay: Western blot of SARS-CoV-2 S and N protein levels; details: SARS-CoV-2, after exposure
Protocol: FIG. 3C is a Western blot analysis of IAV HA and NP protein levels after exposure of IAV to the fabric of Example 3-A and comparative example A. Both the virus that was removed (eluate) from each fabric with PBSTE as well as the virus that remained on each fabric was analyzed and reported in FIG. 3D. Similarly, a Western blot analysis of SARS-CoV-2 S and N protein levels after exposure of virus to the Example 3-A and comparative example A as shown in FIG. 3E. Both the virus that was removed (eluate) from each fabric with PBSTE as well as the virus that remained on each fabric were analyzed and reported in FIG. 3F.
There was no effect on the viral nucleoprotein, which allowed use of the viral nucleoprotein as internal control. A similar altered surface protein to nucleoprotein ratio on the zinc-embedded PA66 fabrics was observed.

IAV NA segment = assay: RT-qPCR of viral RNA (NA segment); details: for viral RNA integrity (RT-qPCR): after treatment
[2] = IAV in the presence of zinc chloride

Protocol for IAV (H1N1): To investigate if zinc ions can directly inactivate IAV, influenza virus was incubated with varying concentrations of zinc chloride.

Compound | effect on viral titer (IAV (H1N1); EDTA alone) | stability of virus surface protein HA (IAV HA and NP protein) | stability of virus surface protein S [1] | viral RNA integrity (RT-qPCR) (IAV NA segment) | HA levels (western blot) (IAV HA and NP protein; [2]) | NP levels (western blot) (IAV HA and NP protein; [2]) | cytotoxic effects in tissue culture (MDCK cells) | reduction on the IAV titer (IAV (H1N1); 60 min incubation, varying concentrations, stopped with equimolar EDTA) | viral NA segment levels (RT-qPCR) (IAV NA segment; IAV after zinc chloride and EDTA neutralization)
O=C(O)CN(CCN(CC(=O)O)CC(=O)O)CC(=O)O [EDTA] | does not have any cytotoxic effects itself or reduce the viral titer |  |  |  |  |  |  |  | 
[Cu+2] [copper ions] |  | aberrant migration | aberrant migration | no significant reduction |  |  |  |  | 
[Cl-].[Cl-].[Zn+2] [zinc chloride] |  | reduced stability | reduced stability | no significant reduction | reduced in a concentration-dependent manner | did not diminish | cytotoxic | approximately 2 log | No effect
